The term % inhibition denotes the relative decrease from the control value, in per cent. Lower therefore signals a response near the control. What is called IC50 is the concentration that inhibits the measured activity by half. What is called melting point is the temperature of the solid-liquid transition.

Series [1] concerns the target T1, EphB4 (Homo sapiens, UniProt P54760).
T1 sequence (P54760 16-987): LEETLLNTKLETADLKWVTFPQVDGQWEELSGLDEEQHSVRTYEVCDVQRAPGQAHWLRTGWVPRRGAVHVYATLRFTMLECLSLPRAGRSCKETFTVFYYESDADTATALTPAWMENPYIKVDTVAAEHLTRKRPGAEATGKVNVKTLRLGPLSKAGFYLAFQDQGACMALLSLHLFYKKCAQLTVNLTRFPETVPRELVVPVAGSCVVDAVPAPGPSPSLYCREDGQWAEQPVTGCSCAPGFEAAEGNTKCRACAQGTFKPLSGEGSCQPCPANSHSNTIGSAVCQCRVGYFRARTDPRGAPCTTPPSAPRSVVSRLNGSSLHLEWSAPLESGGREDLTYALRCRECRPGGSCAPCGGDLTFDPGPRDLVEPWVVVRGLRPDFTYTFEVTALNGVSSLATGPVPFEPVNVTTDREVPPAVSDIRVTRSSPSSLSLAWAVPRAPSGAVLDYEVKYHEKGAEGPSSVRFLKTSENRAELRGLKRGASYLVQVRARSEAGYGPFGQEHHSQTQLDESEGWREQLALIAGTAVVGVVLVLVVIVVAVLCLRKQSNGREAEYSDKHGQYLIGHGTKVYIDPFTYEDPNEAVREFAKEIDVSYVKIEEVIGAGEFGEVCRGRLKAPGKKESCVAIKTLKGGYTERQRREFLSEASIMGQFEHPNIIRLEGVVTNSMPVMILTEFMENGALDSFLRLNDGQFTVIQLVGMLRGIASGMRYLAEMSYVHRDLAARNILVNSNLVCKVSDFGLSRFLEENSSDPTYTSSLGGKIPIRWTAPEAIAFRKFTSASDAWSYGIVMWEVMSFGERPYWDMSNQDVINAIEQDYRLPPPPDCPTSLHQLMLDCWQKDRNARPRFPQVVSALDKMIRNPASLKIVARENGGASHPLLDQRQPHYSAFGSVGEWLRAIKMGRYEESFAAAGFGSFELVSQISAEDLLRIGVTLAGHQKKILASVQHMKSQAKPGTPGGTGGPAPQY
Nature of the series: IC50 and % inhibition (Table 3). In kind it is biochemical. The note with it: for inhibition at 20 µM / inhibition at 10 µM: read-out: % inhibition at indicated concentration C; for IC50: Table 3, repeated determinations, read-out: IC50.

The target in series [2] is T2, myc-tagged full-length human EphB4 (Homo sapiens, UniProt P54760).
T2 construct: stably transfected with myc-tagged full-length human EphB4; expressed in transfected cells; host or cells: CHO-FRT cells (Flip-In System, Invitrogen)
T2 sequence (P54760 16-987): T1 sequence (P54760 16-987)
Nature of the series: Phospho-EphB4 ELISA of CHO cells (EphB4 autophosphorylation). The settings on record: in CHO cells, at 20 μM. The class given is cell-based. As to the method: Phospho-EphB4 ELISA of CHO cells. The ELISA assay was performed as follows: Chinese hamster ovary (CHO)-FRT cells are stably transfected with myc-tagged full-length human EphB4 according to the Flip-In System protocol (Invitrogen, USA). […] Cells of this clone are preincubated with EphB4 inhibitors for 15 minutes and then stimulated with preclustered ephrinB2-Fc for 45 minutes at 37° C. Cells are lysed, transferred to a 96-well plate coated with anti-myc antibody and incubated overnight at 4° C. After incubation with anti-phosphotyrosine antibody, reactions are developed with BM Blue peroxydase substrate, and autophosphorylation of EphB4 is quantified by measuring absorption at 450 nm.
For orientation: ELISA stands for enzyme-linked immunosorbent assay.

Series [3] deals with T1, EphB4. Nature of the series: Panvera Z'Lyte FRET-based enzymatic assay. The settings on record: for Inhibitory activity in the enzymatic assay (in words): Z'Lyte.
Procedure: In vitro kinase activity was measured using the Panvera Z'Lyte Tyr2 kinase assay PV3191 (Invitrogen, USA), according to the manufacturer's instructions. […] The reaction is performed at room temperature for 1 hour.

“And” between values parts separate entries of the source, which are not always exact repeats. Equal entries are not always repeated.

In the case of `COc1ccccc1-n1c(-c2ccc(C(=O)O)cc2)cn2c3c(=O)[nH]c(=O)n(C)c3nc12` [Compound 44, 8-(2-Methoxyphenyl)-1-methyl-7-p-carboxyphenyl-1H-imidazo[2,1-f]purine-2,4(3H,8H)-dione], at EphB4 [1] (C = 20 μM, 20 µM), the “% inhibition at indicated concentration C” value (“% inhibition” below) was 23% and 19% and 13%. Moreover, at EphB4 [1] (C = 20 μM), the inhibition at 20 µM amounted to 12%. In the case of `COc1ccccc1-n1c(-c2ccc(F)cc2)cn2c3c(=O)[nH]c(=O)n(CSC)c3nc12` [Compound 34, 8-(2-Methoxyphenyl)-1-(methylthiomethyl)-7-(p-Fluorophenyl)-1H-imidazo[2,1-f]purine-2,4(3H,8H)-dione], the IC50 on EphB4 [1] was 5.1 µM and 6.4 µM. On to `CCCn1c(-c2ccccc2)cn2c3c(=O)[nH]c(=O)n(C)c3nc12` [Compound 4], for which the “% inhibition” value at EphB4 [1] (C = 10 μM, 10 µM) was 58% and 54%. The inhibition at 10 µM at EphB4 [1] (C = 10 μM) turned out to be 62%. Besides, at EphB4 [1], the IC50 was 8 µM and 9 µM. Moreover, the “Cell-based assay percent inhibition” value in series [2] is “neg”. At EphB4 [3], the IC50 came to 1.9 µM and the “Inhibitory activity in the enzymatic assay (in words)” value is “low-micromolar”. `COc1ccccc1-n1c(-c2ccc(C#N)cc2)cn2c3c(=O)[nH]c(=O)n(C)c3nc12` [Compound 28, 8-(2-Methoxyphenyl)-1-methyl-7-p-cyanophenyl-1H-imidazo[2,1-f]purine-2,4(3H,8H)-dione] came in with a melting point of 303 to 305 °C. Moreover, on EphB4 [1] (C = 20 μM, 20 µM), the “% inhibition” value turned out to be 17%. Further, at EphB4 [1] (C = 20 μM), the inhibition at 20 µM turned out to be 13%. Take `CC1(C)Cc2c(sc(NC(=O)Nc3ccccc3)c2C(N)=O)CO1` [Compound 9, reference compound]: at EphB4 [3] (read-out: Enzymatic assays IC50 Z′Lyte, FRET-based, 10 μM ATP, 1% DMSO, room temperature 1 hour), the IC50 was found to be 76 µM. Take `COCCCn1c(-c2ccccc2)cn2c3c(=O)[nH]c(=O)n(C)c3nc12` [Compound 6]: on EphB4 [1] (C = 10 μM, 10 µM), the “% inhibition” value stood at 46%. In addition, the inhibition at 10 µM on EphB4 [1] (C = 10 μM) stood at 49%. For the same molecule, in series [2] (read-out: Cell-based assay percent inhibition), the inhibition at 20 µM was found to be 28%. At EphB4 [3], the IC50 worked out at 50 µM and the “Inhibitory activity in the enzymatic assay (in words)” value is listed as “mid-micromolar range”. For the molecule `COc1ccccc1-n1c(-c2ccccc2)cn2c3c(=O)[nH]c(=O)n(Cc4ccccc4)c3nc12` [Compound 25, 1-Benzyl-8-(2-methoxyphenyl)-7-phenyl-1H-imidazo[2,1-f]purine-2,4(3H,8H)-dione], the melting point lay in the range of 301 to 303 °C. Moreover, the “% inhibition” value on EphB4 [1] (C = 10 μM, 10 µM) is listed as 11%. The inhibition at 10 µM on EphB4 [1] (C = 10 μM) is 15%. The molecule `Cn1c(-c2ccccc2)cn2c3c(=O)[nH]c(=O)n(Cc4ccccc4)c3nc12` [Compound 19, 1-Benzyl-8-methyl-7-phenyl-1H-imidazo[2,1-f]purine-2,4(3H,8H)-dione] gave a melting point of 306 to 308 °C. In turn, `CCCCn1c(-c2ccccc2)c(Br)n2c3c(=O)[nH]c(=O)n(C)c3nc12` [Compound 38, 6-Bromo-8-butyl-1-methyl-7-phenyl-1H-imidazo[2,1-f]purine-2,4(3H,8H)-dione] registered a melting point of 302 to 304 °C. In turn, `COc1ccccc1-n1c(-c2ccccc2)c(Br)n2c3c(=O)[nH]c(=O)n(C)c3nc12` [Compound 37, 6-Bromo-8-(2-methoxyphenyl)-1-methyl-7-phenyl-1H-imidazo[2,1-f]purine-2,4(3H,8H)-dione] registered a melting point of 274 to 276 °C.

For `O=c1[nH]c(=O)n(Cc2ccccc2)c2nc3[nH]c(-c4ccccc4)cn3c12` [Compound 18, 1-Benzyl-7-phenyl-1H-imidazo[2,1-f]purine-2,4(3H,9H)-dione], the melting point is 393 to 395 °C. Take `COc1ccccc1-n1c(-c2ccc(F)cc2)cn2c3c(=O)[nH]c(=O)[nH]c3nc12` [Compound 30, 7-p-Fluorophenyl-8-(2-methoxyphenyl)-1H-imidazo[2,1-f]purine-2,4(3H,8H)-dione]: on EphB4 [1], the IC50 is 4.6 µM and 6.2 µM. Regarding `O=c1[nH]c(=O)n(Cc2ccccc2)c2nc3n(-c4ccccc4)c(-c4ccc(F)cc4)c(Br)n3c12` [Compound 36, 1-Benzyl-6-bromo-7-p-fluorophenyl-8-phenyl-1H-imidazo[2,1-f]purine-2,4(3H,8H)-dione], the melting point was 276 to 278 °C. In addition, at EphB4 [1] (C = 10 μM, 10 µM), the “% inhibition” value is 10% and 4%. For `COc1ccccc1-n1c(-c2ccc(F)cc2)cn2c3c(=O)[nH]c(=O)n(CS(C)(=O)=O)c3nc12` [Compound 35, 8-(2-Methoxyphenyl)-1-(methylsulfonylmethyl)-7-(p-Fluorophenyl)-1H-imidazo[2,1-f]purine-2,4(3H,8H)-dione], at EphB4 [1], the IC50 was 7.9 µM and 7.1 µM. Molecule `Cn1c(=O)[nH]c(=O)c2c1nc1n(CCCCO)c(-c3ccc(NCCCCO)cc3)cn21` [Compound 29] came in with a melting point of 205 to 207 °C. In addition, the “% inhibition” value at EphB4 [1] (C = 20 μM, 20 µM) is 50% and 62% and 37% and 34%. On to `COc1ccccc1-n1c(-c2ccc(F)cc2)cn2c3c(=O)[nH]c(=O)n(Cc4ccccc4)c3nc12` [Compound 22, 1-Benzyl-7-p-fluorophenyl-8-(2-methoxyphenyl)-1H-imidazo[2,1-f]purine-2,4(3H,8H)-dione], for which the melting point was in the range of 251 to 253 °C.

Regarding `COc1ccccc1-n1c(-c2ccccc2)c(C#N)n2c3c(=O)[nH]c(=O)n(C)c3nc12` [Compound 41, 6-Cyano-8-(2-methoxyphenyl)-1-methyl-7-phenyl-1H-imidazo[2,1-f]purine-2,4(3H,8H)-dione], on EphB4 [1] (C = 20 μM, 20 µM), the “% inhibition” value is on record as 30%. Further, the inhibition at 20 µM on EphB4 [1] (C = 20 μM) worked out at 21%.

In the case of `COC(=O)Cn1c(=O)[nH]c(=O)c2c1nc1n(-c3ccccc3OC)c(-c3ccc(F)cc3)cn21` [Compound 32, 8-(2-Methoxyphenyl)-1-(methoxy-2-oxoethyl)-7-(p-Fluorophenyl)-1H-imidazo[2,1-f]purine-2,4(3H,8H)-dione], the IC50 at EphB4 [1] is 9.5 µM and 8.9 µM. In turn, `CNc1ccc(-c2cn3c4c(=O)[nH]c(=O)n(Cc5ccccc5)c4nc3n2C)cc1` [Compound 20, 1-Benzyl-8-methyl-7-p-methylaminophenyl-1H-imidazo[2,1-f]purine-2,4(3H,8H)-dione] displayed a melting point of 288 to 290 °C.

As to `COc1ccccc1-n1c(-c2ccc([N+](=O)[O-])cc2)cn2c3c(=O)[nH]c(=O)n(C)c3nc12` [Compound 27, 8-(2-Methoxyphenyl)-1-methyl-7-p-nitrophenyl-1H-imidazo[2,1-f]purine-2,4(3H,8H)-dione], the melting point lay within 323 to 325 °C. Take `COc1ccc(-n2c(-c3ccc(F)cc3)cn3c4c(=O)[nH]c(=O)n(C)c4nc23)c(OC)c1` [Compound 16]: the “% inhibition” value on EphB4 [1] (C = 10 μM, 10 µM) was 50% and 28%.

For `O=c1[nH]c(=O)n(Cc2ccccc2)c2nc3n(-c4ccccc4)c(-c4ccc(F)cc4)cn3c12` [Compound 21, 1-Benzyl-7-p-fluorophenyl-8-phenyl-1H-imidazo[2,1-f]purine-2,4(3H,8H)-dione], the melting point was in the range of 250 to 252 °C. Regarding `COc1ccc(OC)c(-n2c(-c3ccc(F)cc3)cn3c4c(=O)[nH]c(=O)n(C)c4nc23)c1` [Compound 17], the “% inhibition” value on EphB4 [1] (C = 10 μM, 10 µM) was found to be 62%. Also, the inhibition at 10 µM at EphB4 [1] (C = 10 μM) came to 72%.
